Calls of active or inactive are those of the source. The rule behind the calls is not given here.
Legend:
Kidney = test: Release of H2S in mouse kidney homogenate at 10 to 300 uM measured for 10 mins by methylene blue formation assay; format: ADME, tissue-based; settings: tissue homogenate, dose 10-300 µM
Mus musculus [1] = test: Antipruritic effect in mouse assessed as reduction in histamine-induced itching duration at 60 to 120 mg/kg ip pretreated 30 mins before histamine and recorded for 10 mins; format: functional; settings: dose 60-120 mg/kg, 0.5 h
[2] = Toxicity in mouse assessed as sedative effect by measuring reduction in locomotion at 70 mg/kg ip; format: organism-based; settings: in vivo
[3] = (§1) Antihistamine effect in HUVEC cells assessed as inhibition of histamine-induced tissue factor expression pretreated 30 mins before addition of his measured after 2 hrs after addition of TRIzol by spectrophotometry; format: functional, cell-based; settings: Homo sapiens, HUVE
HUVE = test: as §1; format: functional, cell-based; settings: Homo sapiens
[4] = Drug metabolism in mouse assessed as fold increase in plasma HDZ at 50 mg/kg, ip by LC-MS/MS analysis; format: ADME, organism-based; settings: in vivo
[5] = Toxicity in histamine-induced mouse itching mouse model assessed as reduction in locomotion at 15 mg/kg ip; format: organism-based; settings: in vivo
Mus musculus [6] = test: Antihistamine effect in mouse assessed as Inhibition of histamine-induced increase vascular leakage in skin tissue at 15 mg/kg, ip pretreated 30 mins before Evans blue injection followed by injected with histamine mouse euthanized and skin excised by Miles assay; format: functional, organism-based
[7] = Plasma concentration in mouse at 1 mg/kg, ip measured after 30 mins by LC-MS/MS analysis; format: ADME, organism-based
[8] = Toxicity in histamine-induced mouse itching mouse model assessed as reduction in locomotion at 60 to 120 mg/kg ip; format: organism-based; settings: in vivo, dose 60-120 mg/kg
Mus musculus [9] = test: Antipruritic effect in mouse assessed as reduction in histamine-induced itching duration at 15 mg/kg ip pretreated 30 mins before histamine and recorded for 10 mins; format: functional, organism-based
Mus musculus [10] = test: Antipruritic effect in mouse assessed as reduction in PAR-2-induced itching duration at 15 mg/kg ip pretreated 30 mins before histamine and recorded for 10 mins; format: functional, organism-based
HepG2 = test: Release of H2S in human HepG2 cells measured for 24 hrs by lead acetate method; format: ADME, cell-based; settings: hepg2, 24 h, dose 0.5-3 mM
Mus musculus [11] = test: Antipruritic effect in mouse assessed as reduction in histamine-induced itching duration at 3.5 mg/kg ip pretreated 30 mins before histamine and recorded for 10 mins relative to HDZ; format: functional, organism-based
Mus musculus [12] = test: Antipruritic effect in mouse assessed as reduction in histamine-induced itching duration at 20 mg/kg ip pretreated 30 mins before histamine and recorded for 10 mins; format: functional, organism-based
Mus musculus [13] = test: Antipruritic effect in mouse assessed as reduction in histamine-induced itching duration at 50 mg/kg ip pretreated 30 mins before histamine and recorded for 10 mins relative to CET; format: functional, organism-based
Mus musculus [14] = test: Antipruritic effect in mouse assessed as reduction in PAR-2-induced itching duration at 50 mg/kg ip pretreated 30 mins before histamine and recorded for 10 mins; format: functional, organism-based
[15] = Drug metabolism in mouse assessed as fold increase in plasma CET at 50 mg/kg, ip by LC-MS/MS analysis; format: ADME, organism-based; settings: in vivo
Mus musculus [16] = test: Antihistamine effect in mouse assessed as Inhibition of histamine-induced increase vascular leakage in skin tissue at 50 mg/kg, ip pretreated 30 mins before Evans blue injection followed by injected with histamine mouse euthanized and skin excised by Miles assay; format: functional, organism-based
Mus musculus [17] = test: Antipruritic effect in mouse assessed as reduction in histamine-induced itching duration at 30 mg/kg ip pretreated 30 mins before histamine and recorded for 10 mins; format: functional, organism-based
Mus musculus [18] = test: Antihistamine effect in mouse assessed as Inhibition of histamine-induced increase vascular leakage in skin tissue at 10 mg/kg, ip pretreated 30 mins before Evans blue injection followed by injected with histamine mouse euthanized and skin excised by Miles assay; format: functional, organism-based
Mus musculus [19] = test: Antipruritic effect in mouse assessed as reduction in PAR-2-induced itching duration at 10 mg/kg ip pretreated 30 mins before histamine and recorded for 10 mins; format: functional, organism-based
[20] = Plasma concentration in mouse at 10 mg/kg, ip measured after 30 mins by LC-MS/MS analysis
Mus musculus [21] = test: Antipruritic effect in mouse assessed as reduction in histamine-induced itching duration at 10 mg/kg ip pretreated 30 mins before histamine and recorded for 10 mins; format: functional, organism-based
Mus musculus [22] = test: Antipruritic effect in mouse assessed as reduction in PAR-2-induced itching duration at 1 mg/kg ip pretreated 30 mins before histamine and recorded for 10 mins; format: functional, organism-based
Mus musculus [23] = test: Antipruritic effect in mouse assessed as reduction in histamine-induced itching duration at 5 mg/kg ip pretreated 30 mins before histamine and recorded for 10 mins; format: functional, organism-based
[24] = Toxicity in mouse assessed as sedative effect by measuring reduction in locomotion at 50 mg/kg ip; format: organism-based; settings: in vivo
Mus musculus [25] = test: Antipruritic effect in mouse assessed as reduction in histamine-induced itching duration at 1 mg/kg ip pretreated 30 mins before histamine and recorded for 10 mins; format: functional, organism-based
Mus musculus [26] = test: Antihistamine effect in mouse assessed as Inhibition of histamine-induced increase vascular leakage in skin tissue at 1 mg/kg, ip pretreated 30 mins before Evans blue injection followed by injected with histamine mouse euthanized and skin excised by Miles assay; format: functional, organism-based

Compound: CCOCCn1c(C2CCN(CCc3ccc(C(C)(C)C(=O)Oc4ccc(C(N)=S)cc4)cc3)CC2)nc2ccccc21
- Drug metabolism (Kidney): Dose-Dependent Effect

Compound: NC(=S)c1ccc(OC(=O)CCC(=O)OCCOCCN2CCN(C(c3ccccc3)c3ccc(Cl)cc3)CC2)cc1 (stereo unspecified)
- inhibition (INH) (Mus musculus [1]): 100%
- Activity [2]: Non-Toxic
- Drug metabolism (Kidney): Dose-Dependent Effect
- IC50 [3]: 599 nM
- inhibition (HUVE): Dose-Dependent Effect
- fold change (FC) [4]: 15
- Activity [5]: Non-Toxic
- inhibition (Mus musculus [6]): Active
- concentration at 0.5 h [7]: 36.1 ng/mL
- Activity [8]: Toxic
- inhibition (Mus musculus [9]): Active
- inhibition (Mus musculus [10]): Active

Compound: C[C@H]1CN(C2CCC(C#N)(c3ccc(F)cc3)CC2)CC[C@@]1(C(=O)Oc1ccc(-c2cc(=S)ss2)cc1)c1ccccc1 (stereo partly specified)
- Drug metabolism (HepG2): Dose-Dependent Effect
- Drug metabolism (Kidney): Dose-Dependent Effect

Compound: C[C@H]1CN(C2CCC(C#N)(c3ccc(F)cc3)CC2)CC[C@@]1(C(=O)Oc1ccc(C(N)=S)cc1)c1ccccc1 (stereo partly specified)
- Drug metabolism (Kidney): Dose-Dependent Effect

Compound: CCOCCn1c(C2CCN(CCc3ccc(C(C)(C)C(=O)Oc4ccc(-c5cc(=S)ss5)cc4)cc3)CC2)nc2ccccc21
- Drug metabolism (HepG2): Dose-Dependent Effect
- Drug metabolism (Kidney): Dose-Dependent Effect

Compound: NC(=S)c1ccccc1
- inhibition (Mus musculus [11]): Active

Compound: Oc1ccc(-c2cc(=S)ss2)cc1
- inhibition (Mus musculus [12]): Active

Compound: O=C(COCCN1CCN(C(c2ccccc2)c2ccc(Cl)cc2)CC1)OCCCCCCOc1ccc(-c2cc(=S)ss2)cc1 (racemic)
- Drug metabolism (Kidney): Dose-Dependent Effect

Compound: O=C(CCC(=O)Oc1ccc(-c2cc(=S)ss2)cc1)OCCOCCN1CCN(C(c2ccccc2)c2ccc(Cl)cc2)CC1 (racemic)
- Drug metabolism (HepG2): Dose-Dependent Effect
- Drug metabolism (Kidney): Dose-Dependent Effect
- IC50 [3]: 5.5 nM
- inhibition (HUVE): Dose-Dependent Effect

Compound: NC(=S)c1ccc(OCCCCCCOC(=O)COCCN2CCN(C(c3ccccc3)c3ccc(Cl)cc3)CC2)cc1 (racemic)
- Drug metabolism (Kidney): Dose-Dependent Effect
- IC50 [3]: 7.9 nM
- inhibition (HUVE): Dose-Dependent Effect

Compound: O=C(COCCN1CCN(C(c2ccccc2)c2ccc(Cl)cc2)CC1)OCCOc1ccc(-c2cc(=S)ss2)cc1 (racemic)
- Drug metabolism (HepG2): Dose-Dependent Effect
- Drug metabolism (Kidney): Dose-Dependent Effect
- IC50 [3]: 812 nM
- inhibition (HUVE): Dose-Dependent Effect
- inhibition (Mus musculus [13]): Active
- inhibition (Mus musculus [14]): Active
- fold change (FC) [15]: 3
- inhibition (Mus musculus [16]): Active

Compound: O=C(O)COCCN1CCN(C(c2ccccc2)c2ccc(Cl)cc2)CC1 (stereo unspecified) [CETIRIZINE]
- Activity [2]: Toxic
- Activity (Mus musculus [17]): Active
- IC50 [3]: 169 nM
- inhibition (HUVE): Dose-Dependent Effect
- inhibition (Mus musculus [18]): Active
- inhibition (Mus musculus [19]): Active
- concentration at 0.5 h [20]: 8460 ng/mL
- Activity (Mus musculus [21]): Active

Compound: OCCOCCN1CCN(C(c2ccccc2)c2ccc(Cl)cc2)CC1 (stereo unspecified) [HYDROXYZINE]
- IC50 [3]: 4.87 nM
- inhibition (HUVE): Dose-Dependent Effect
- inhibition (Mus musculus [22]): Active
- Activity (Mus musculus [23]): Active
- Activity [24]: Toxic
- Activity (Mus musculus [25]): Active
- inhibition (Mus musculus [26]): Active

From ChEMBL document CHEMBL5346951, “Novel H2S-Releasing Bifunctional Antihistamine Molecules with Improved Antipruritic and Reduced Sedative Actions” (J Med Chem, 2023)
